Experiments:
phospho-NF-κB = experiment: Western blot of B16F10 cells, phospho-NF-κB; format: cell-based, mouse; settings: 50 μM (FIG. 9)
Protocol: (§1) B16F10 cells were cultured in 10-cm plates and then treated in duplicate with carrier or curcumin (50 μM). Following treatment for appropriate time periods, the cells were washed with PBS, lysed in RIPA buffer (PBS containing 1% Nonidet P40, 0.5% sodium deoxycholate, 0.1% SDS, 0.5 mM Na3VO4 plus freshly added PMSF and protease inhibitor cocktail; Boeringer-Roche), and then 20 μg of lysate protein (per lane) were analyzed by SDS-10% PAGE and Western blot analysis. Antibody concentrations used were: anti-phospho-NF-κB (1:1000) (Santa Cruz Biotechnology, Santa Cruz, Calif.), anti-phospho-Akt (1:5000) (Cell Signaling, CA), anti-cyclin D1 (1:1000) (Cell Signaling, CA), anti-BclXL (1:500) (Santa Cruz Biotechnology), anti-VEGF (1:500) (Santa Cruz Biotechnology), and anti-β-actin (1:1000) (Sigma, St. Louis, Mo.).

phospho-Akt = experiment: Western blot of B16F10 cells, phospho-Akt; format: cell-based, mouse; settings: 50 μM (FIG. 9)
Protocol: as §1

BclXL = experiment: Western blot of B16F10 cells, BclXL; format: cell-based, mouse; settings: 50 μM (FIG. 9)
Protocol: as §1

VEGF = experiment: Western blot of B16F10 cells, VEGF; format: cell-based, mouse; settings: 50 μM
Protocol: as §1

[1] = cited from earlier work
breast tumor cell lines = settings: several breast tumor cell lines (Mehta et al. 1997); cited from earlier work
[2] = test system: B16F10 (mouse melanoma) cells; experiment: Cell viability assay using MTT, B16F10; format: cell-based; settings: 25 μM and 50 μM, 48 h or 96 h, versus control cells (FIG. 6a)
Protocol: Cells. B16F10 (mouse melanoma), GL261 (mouse glioma), HOG (human oligodendroglioma), A549 (human lung cancer), and N18 (mouse neuroblastoma) cells were cultured separately in DMEM containing 10% (v/v) fetal bovine serum and 1% (v/v) penicillin-streptomycin (PS) and allowed to grow to 40% confluence in a 96-well plate.
Curcumin Treatment. Two hours before drug treatment, the medium in each well was replaced with 200 μl Neurobasal medium supplemented with 2% (v/v) B27 and 1% (v/v) PS (Drug-treatment Medium). A stock solution (40 mM) of curcumin was prepared in sterile dimethyl sulfoxide (DMSO) (Example 1). Through serial dilution of each stock solution in Drug-treatment Medium, the following concentrations were obtained: 20 μM and 50 μM (for caspase 3/7 assays) or 25 μM and 50 μM (for MTT assays). […] Additionally, the background absorbance was determined from parallel wells containing only the Drug-treatment Medium plus a particular concentration of the drug (no cells).
Cell Viability Assay Using MTT (3-(4,5-Dimethylthiazolyl-2)-2,5-Diphenyltetrazolium Bromide). […] Absorbance was measured at 570 nm using a 96-well multi scanner auto-reader with the extraction buffer used as blank. For curcumin samples, the absorbance obtained from the corresponding curcumin plus medium samples was subtracted.

cyclin D1 = experiment: Western blot of B16F10 cells, cyclin D1; format: cell-based, mouse; settings: 50 μM
Protocol: as §1

COc1cc(/C=C/C(=O)CC(=O)/C=C/c2ccc(O)c(OC)c2)ccc1O [curcumin]
phospho-NF-κB (Western blot) (phospho-NF-κB): suppression
phospho-Akt (Western blot) (phospho-Akt): suppression
BclXL (Western blot) (BclXL): suppression
VEGF (Western blot) (VEGF): suppressed
solubility in water [1]: very low
proliferation (breast tumor cell lines): antiproliferative effects
cell viability (MTT) [2]: dramatic decrease
cyclin D1 levels (Western blot) (cyclin D1; active cell division (first 48 h)): decrease
cyclin D1 inhibition (Western blot) (cyclin D1; subsequently, when cell division had slowed down): not observed

— patent US20100197584A1, “USE OF CURCUMIN TO BLOCK BRAIN TUMOR FORMATION IN MICE” (Research Foundations of the City University of- New York, priority 2007, published 2010)
